Results published in PubChem BioAssay (NCI).
Where “and” joins values, the source holds several entries; their conditions need not be identical. Equal entries are not always repeated.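 Briefly, cells in 96-well plates were exposed to five compound concentrations for 48 h, and endpoints were estimated by linear interpolation. GI50: concentration for 50% inhibition of growth. At the TGI there is no net growth.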

Experiments:
Assay in all cases: NCI anticancer screen, dose series, 48 h
SF-295 CNS = test system: SF-295 CNS
A549 NSCLC = test system: A549 NSCLC
MDA-MB-435 = test system: MDA-MB-435
KM12 colon = test system: KM12 colon
HOP-62 NSCLC = test system: HOP-62 NSCLC
EKVX NSCLC = test system: EKVX NSCLC
OVCAR-8 ovarian = test system: OVCAR-8 ovarian
OVCAR-4 ovarian = test system: OVCAR-4 ovarian
UO-31 renal = test system: UO-31 renal
NCI/ADR-RES ovarian = test system: NCI/ADR-RES ovarian

| Structure (SMILES) | GI50 (SF-295 CNS) | TGI (SF-295 CNS) | GI50 (A549 NSCLC) | TGI (A549 NSCLC) | GI50 (MDA-MB-435) | TGI (MDA-MB-435) | GI50 (KM12 colon) | TGI (KM12 colon) | GI50 (HOP-62 NSCLC) | TGI (HOP-62 NSCLC) | GI50 (EKVX NSCLC) | GI50 (OVCAR-8 ovarian) | TGI (OVCAR-8 ovarian) | GI50 (OVCAR-4 ovarian) | GI50 (UO-31 renal) | TGI (UO-31 renal) | GI50 (NCI/ADR-RES ovarian) | TGI (NCI/ADR-RES ovarian) | TGI (EKVX NSCLC) | TGI (OVCAR-4 ovarian) |
| --- | --- | --- | --- | --- | --- | --- | --- | --- | --- | --- | --- | --- | --- | --- | --- | --- | --- | --- | --- | --- |
| CCC1=C(CC2NCCc3ccccc32)CC2c3cc(OC)c(OC)cc3CCN2C1 (stereo not drawn) | 3.73 µM | 15 µM and 6.82 µM | 3.49 µM | 19.9 µM and 4.88 µM | 3.51 µM | 14.2 µM and 2.45 µM | 3.32 µM | 12.2 µM and 4.81 µM | 3.6 µM | 17.1 µM and 4.65 µM | 4.81 µM | 3.93 µM | 26.5 µM and 19.2 µM | 3.87 µM | 4.73 µM | 29.7 µM and 3.35 µM | 6.7 µM | 50.9 µM and 12.4 µM |  |  |
| Cc1ccc(C(=O)NC2CC2)cc1-c1ccc2[nH]ncc2c1 | > 25 µM | > 25 µM | > 25 µM | > 25 µM | > 25 µM | > 25 µM | > 25 µM | > 25 µM | > 25 µM | > 25 µM | > 25 µM | > 25 µM | > 25 µM | > 25 µM | > 22.9 µM | > 25 µM | > 25 µM | > 25 µM | > 25 µM | > 25 µM |
| CN1CCN(CCCOc2cc(O)c3c(=O)cc(-c4ccccc4)oc3c2)CC1 | 21.1 µM | 44.5 µM | 28.8 µM | 91.1 µM | 13.7 µM | 32.9 µM | 22 µM | 54.7 µM | 16.6 µM | 32 µM | 37.6 µM | 37.1 µM | > 100 µM | 16.3 µM | 16.9 µM | 47.3 µM | 18.6 µM | 43.2 µM | > 100 µM | 41 µM |
| CNC(=O)c1cncc(/C=C/c2ccccc2Cl)c1 | > 25 µM | > 25 µM | > 25 µM | > 25 µM | > 25 µM | > 25 µM | > 25 µM | > 25 µM | > 25 µM | > 25 µM | > 25 µM | > 25 µM | > 25 µM | > 25 µM | > 23.6 µM | > 25 µM | > 25 µM | > 25 µM | > 25 µM | > 25 µM |
| COc1cc(C(=O)c2cocc2C(=O)c2ccc3c(c2)OCO3)cc(OC)c1OC |  | 2.48 µM |  | > 68 µM |  | 0.955 µM |  | 59.1 µM |  | 31.3 µM |  |  | 30 µM |  |  | 33.9 µM |  | 1.3 µM | > 58.3 µM | > 54.3 µM |
| CNC(=O)c1ccccc1Nc1nc(Nc2ccc3c(c2OC)CCC[C@H](N2CCN(CCO)CC2)C3)ncc1Cl | 1.71 µM and 1.49 µM | 3.79 µM and 3.42 µM | 1.45 µM and 1.44 µM | 10.2 µM and > 10 µM | 1.33 µM and 0.901 µM | 6.92 µM and > 10 µM | 3.04 µM and 3.23 µM | 11.2 µM and > 10 µM | 2.84 µM and 2.77 µM | 16.8 µM and > 10 µM | 1.75 µM and 1.72 µM | 4.73 µM and 3.25 µM | 19.9 µM and > 10 µM | 1.72 µM and 3.45 µM | 1.38 µM and 0.714 µM | 11.6 µM and 7.69 µM | 4.62 µM and 3.01 µM | 17.9 µM and > 10 µM | 13.7 µM and > 10 µM | 13.4 µM and > 10 µM |
| CC1(C)CCC[C@]2(C)c3ccccc3C(=O)CC12 (stereo partly drawn) | 40.7 µM | > 100 µM | 54.1 µM | > 100 µM | 22.9 µM | > 100 µM | 23.8 µM | > 100 µM | > 100 µM | > 100 µM | 42.9 µM | 32.1 µM | > 100 µM | > 100 µM | 53.1 µM | > 100 µM | 20.3 µM | 91.1 µM | > 100 µM | > 100 µM |
| O=P(O)(O)OCC1OC(n2cnc3c(NCc4ccccc4)ncnc32)C(O)C1O (stereo not drawn) | 3.09 µM | 21.8 µM | 7.21 µM | > 88.4 µM | 3.23 µM | > 100 µM | 12.7 µM | > 100 µM | 1.74 µM | 27.9 µM | 2.97 µM | 0.587 µM | 6.92 µM | 0.642 µM | 3.38 µM | 32.4 µM | 1.19 µM | 30.7 µM | 80.1 µM | 33.1 µM |
| CC1=NOC(=O)/C1=C/c1ccc2c(c1)OCO2 |  | 69.6 µM |  | > 100 µM |  | 56.6 µM |  | 36.6 µM |  | 40.9 µM |  |  | 86.3 µM |  |  | 38.9 µM |  | > 100 µM | > 100 µM | > 100 µM |
| CCn1c2ccccc2c2cc(C(=O)c3ccc(C)c4ccccc34)ccc21 | 0.273 µM | 0.936 µM | 0.421 µM | > 100 µM | 0.161 µM | 0.378 µM | 0.362 µM | 14.9 µM | 0.476 µM | > 100 µM | 0.528 µM | 0.493 µM | > 100 µM | 3.32 µM | 0.716 µM | > 100 µM | 0.312 µM | > 100 µM | > 100 µM | > 100 µM |
| C[C@]12C[C@H](O)[C@H]3[C@@H](CCC4=CC(=O)CC[C@@]43C)[C@@H]1CC[C@@H]2c1csc(-c2ccccc2)n1 |  | > 100 µM |  | > 100 µM |  | > 100 µM |  | > 100 µM |  | > 51.3 µM |  |  | > 100 µM |  |  | > 46.2 µM |  | > 100 µM | > 100 µM | > 73.8 µM |
| C=C1CCC2C3(C)COC(c4ccccc4Cl)OC3CCC2(C)C1/C=C/C1=CCOC1=O (stereo not drawn) | 3.48 µM | > 100 µM | 4.97 µM | > 100 µM | 9.89 µM | > 100 µM | 6.71 µM | > 100 µM | > 100 µM | > 100 µM | 2.82 µM | 13.8 µM | > 100 µM | 4.47 µM | 6.95 µM | > 100 µM | 7.74 µM | > 100 µM | > 100 µM | > 100 µM |
| N#Cc1cccc(C2C3=C(COC3=O)N(CCO)c3cc4c(cc32)OCO4)c1 (stereo not drawn) | 1.17 µM | > 50 µM | 6.17 µM | > 50 µM | 0.154 µM | 1.03 µM | 1.74 µM | > 50 µM | 2.1 µM | > 50 µM | 2.78 µM | 2.88 µM | > 50 µM | 10.9 µM | 2.63 µM | > 50 µM | 3.46 µM | > 50 µM | > 50 µM | > 50 µM |
